Results from PMC9512702 (Nature Chemical Biology, 2022).
In brackets after ≈: the same amount, converted by molar mass. Several values for one entry are separate records, joined by “and”; a condition that tells them apart may be missing. Equal values may be shown once. Where a SMILES comes first, the peptide text is derived from it. [ ]: non-standard residue; d: D form. Cha = N[C@@H](CC1CCCCC1)C(=O)O; Aib = CC(C)(N)C(=O)O

What was measured:
[1] = Solubility measurement (peptide concentration in saturated solution); conditions: sodium-phosphate buffer, pH 7.4, aqueous buffer, thermodynamic from solid
Method: Approximately 2 mg of each peptide was added to 500 µl of buffer in 1.5-ml Eppendorf tubes. The tubes were shaken at 25 °C for 2 h on a 900 r.p.m. vortex shaker. The samples were centrifuged at 12,000 r.p.m. for 15 min to remove the precipitate and the supernatant was analyzed by ultraviolet–visible light (UV–vis) spectrometry.

[2] = target: SARS-CoV-2 RBD binding to immobilized ACE2 (Severe acute respiratory syndrome coronavirus 2, UniProt P0DTC2); experiment: biochemical
SARS-CoV-2 RBD = SARS-CoV-2 RBD (Severe acute respiratory syndrome coronavirus 2, UniProt P0DTC2); experiment: biochemical; type: binding; conditions: KD (direct binding to RBD)
[3] = Cell viability (MTT) assay, Vero-E6; type: cell-based, monkey; conditions: monkey; Vero-E6 cells, MTT, 20 μM (highest concentration tested), 48 h
Method: (§1) The cell viability assay was performed by using the MTT (3-(4,5-dimethylthiazol-2-yl)-2,5-diphenyltetrazolium bromide) assay. […] The next day, 50 μl of media was removed from each well and 50 μl of the peptide was added in a dose-dependent manner. 10% DMSO (final concentration v/v) was used as a positive control for the induction of cytotoxicity. […] The plate was incubated for another 4 h in the humidified CO2 incubator, after which 100 μl of dissolving solution (10% SDS in 0.01 M HCl) was added to each well. The plate was then incubated in a CO2 incubator overnight. The next day, the plate was read for absorbance at 570 nm. The percentage viability of cells was recorded in comparison to the untreated cells.

Vero-E6 cells = experiment: Cell viability (MTT) assay, Vero-E6; type: cell-based, monkey; conditions: Vero-E6 cytotoxicity vs pseudovirus IC50
Method: as §1

| SMILES | solubility thermodynamic at 2 h [1] [µM] | IC50 [2] [nM] | Kd (SARS-CoV-2 RBD; re-analyzed) | viability at 48 h, 20 µM [3] [%] | Kd (SARS-CoV-2 RBD) [nM] | Selectivity index (50% cytotoxic concentration divided by IC50) (Vero-E6 cells) |
| --- | --- | --- | --- | --- | --- | --- |
| CC[C@H](C)[C@H](NC(=O)[C@H](CC(C)C)NC(=O)[C@H](CC(=O)O)NC(=O)[C@H](CO)NC(=O)[C@@H](NC(=O)[C@H](CCCNC(=N)N)NC(=O)[C@H](CCSC)NC(=O)[C@H](CO)NC(=O)[C@H](C)NC(=O)[C@H](CCC(=O)O)NC(=O)C(C)(C)NC(=O)[C@H](CC(N)=O)NC(=O)[C@@H](C)NC(=O)[C@H](CC(C)C)NC(=O)[C@H](CCC(=O)O)NC(=O)[C@H](CC(=O)O)NC(=O)[C@H](CC(C)C)NC(=O)[C@H](CC(C)C)NC(=O)[C@H](CCCNC(=N)N)NC(=O)[C@H](CCSC)NC(=O)[C@@H](NC(=O)[C@H](CCC(=O)O)NC(=O)[C@H](Cc1ccc(O)cc1)NC(=O)[C@@H](NC(=O)[C@H](CCCCN)NC(=O)[C@H](CCC(N)=O)NC(=O)[C@H](CC(C)C)NC(=O)[C@@H](NC(=O)[C@H](Cc1c[nH]c2ccccc12)NC(=O)[C@H](CCC(=O)O)NC(=O)[C@H](CCCCN)NC(=O)[C@@H](N)CC(=O)O)[C@@H](C)CC)[C@@H](C)CC)[C@@H](C)CC)C(C)C)C(=O)N[C@@H](Cc1ccc(O)cc1)C(=O)N[C@@H](CCC(=O)O)C(=O)N[C@@H](Cc1ccccc1)C(=O)N[C@@H](CCSC)C(=O)N[C@@H](CCCCN)C(=O)N[C@@H](CCCCN)C(N)=O [SIH-4] (H-DKEWILQKIYEIMRLLDEL[dA]N[Aib]EASMRVSDLIYEFMKK-NH2) | 220 (≈ 1020 µg/mL) | 250 to 500 | – | – | – | – |
| CC[C@H](C)[C@H](NC(=O)[C@H](CC(C)C)NC(=O)[C@H](CC(=O)O)NC(=O)[C@H](CO)NC(=O)[C@@H](NC(=O)[C@H](CCCNC(=N)N)NC(=O)[C@H](CCSC)NC(=O)[C@H](CO)NC(=O)[C@H](C)NC(=O)[C@H](CCC(=O)O)NC(=O)C(C)(C)NC(=O)[C@H](CC(=O)O)NC(=O)[C@@H](C)NC(=O)[C@H](CC(C)C)NC(=O)[C@H](CCC(=O)O)NC(=O)[C@H](CC(=O)O)NC(=O)[C@H](CC(C)C)NC(=O)[C@H](CC(C)C)NC(=O)[C@H](CCCNC(=N)N)NC(=O)[C@H](CCSC)NC(=O)[C@@H](NC(=O)[C@H](CCC(=O)O)NC(=O)[C@H](Cc1ccc(O)cc1)NC(=O)[C@@H](NC(=O)[C@H](CCCCN)NC(=O)[C@H](CCC(N)=O)NC(=O)[C@H](CC(C)C)NC(=O)[C@@H](NC(=O)[C@H](Cc1c[nH]c2ccccc12)NC(=O)[C@H](CCC(=O)O)NC(=O)[C@H](CCCCN)NC(=O)[C@@H](N)CC(=O)O)[C@@H](C)CC)[C@@H](C)CC)[C@@H](C)CC)C(C)C)C(=O)N[C@@H](Cc1ccc(O)cc1)C(=O)N[C@@H](CCC(=O)O)C(=O)N[C@@H](Cc1ccccc1)C(=O)N[C@@H](CCSC)C(=O)N[C@@H](CCCCN)C(=O)N[C@@H](CCCCN)C(N)=O [SIH-5] (H-DKEWILQKIYEIMRLLDEL[dA]D[Aib]EASMRVSDLIYEFMKK-NH2) | > 700 | 125 to 250 | ~0.9 nM and 0.9 nM | > 75 | – | – |
| CC[C@H](C)[C@H](NC(=O)[C@H](CC(C)C)NC(=O)[C@H](CC(=O)O)NC(=O)[C@H](CO)NC(=O)[C@@H](NC(=O)[C@H](CCCNC(=N)N)NC(=O)[C@H](CCSC)NC(=O)[C@H](CO)NC(=O)[C@H](C)NC(=O)[C@H](CCC(=O)O)NC(=O)C(C)(C)NC(=O)[C@H](CC(=O)O)NC(=O)[C@@H](C)NC(=O)[C@H](CC(C)C)NC(=O)[C@H](CCC(=O)O)NC(=O)[C@H](CC(=O)O)NC(=O)[C@H](CC(C)C)NC(=O)[C@H](CC(C)C)NC(=O)[C@H](CCCNC(=N)N)NC(=O)[C@H](CCSC)NC(=O)[C@@H](NC(=O)[C@H](CCC(=O)O)NC(=O)[C@H](Cc1ccc(O)cc1)NC(=O)[C@@H](NC(=O)[C@H](CCCCN)NC(=O)[C@H](CCC(N)=O)NC(=O)[C@H](CC(C)C)NC(=O)[C@@H](NC(=O)[C@H](Cc1c[nH]c2ccccc12)NC(=O)[C@H](CCC(=O)O)NC(=O)[C@H](CCCCN)NC(=O)[C@@H](N)CC(=O)O)[C@@H](C)CC)[C@@H](C)CC)[C@@H](C)CC)C(C)C)C(=O)N[C@@H](Cc1ccc(O)cc1)C(=O)N[C@@H](CCC(=O)O)C(=O)N[C@@H](CC1CCCCC1)C(=O)N[C@@H](CCSC)C(=O)N[C@@H](CCCCN)C(=O)N[C@@H](CCCCN)C(N)=O [SIH-11] (H-DKEWILQKIYEIMRLLDEL[dA]D[Aib]EASMRVSDLIYE[Cha]MKK-NH2) | – | 125 to 250 | – | > 75 | 1.3 | > 50,000 |
